Data published in patent publication US20110269811A1, “INHIBITORS OF SEMICARBAZIDE-SENSITIVE AMINE OXIDASE (SSAO) AND VAP-1 MEDIATED ADHESION USEFUL FOR TREATMENT AND PREVENTION OF DISEASES” (priority 2006, published 2011).
pIC50: −log10 of the molar value.

Legend:
M1 (h) = target: T1, M1 (h) (Homo sapiens, UniProt P11229); assay: Receptor binding screen, [^3H]pirenzepine; details: 10 uM Concentration of Compound I-1-Z; read-out: Mean Value, percent inhibition of control specific binding: M1 (h)
T1 construct: expressed in transfected cells; host or cells: CHO cells
Procedure: (§1) For Table 4 below, the specific ligand binding to the receptors is defined as the difference between the total binding and the nonspecific binding determined in the presence of an excess of unlabelled ligand. The results are expressed as a percent inhibition of control specific binding obtained in the presence of Compound I-1-Z. The IC50 values (concentration causing a half-maximal inhibition of control specific binding) and Hill coefficients (nH) were determined by non-linear regression analysis of the competition curves using Hill equation curve fitting. The inhibition constants (Ki) were calculated from the Cheng Prusoff equation (Ki=IC50/(1+(L/KD)), where L=concentration of radioligand in the assay, and KD=affinity of the radioligand for the receptor). In each experiment, the respective reference compound was tested concurrently with Compound I-1-Z in order to assess the assay suitability.

Y1 (h) = target: T2, Y1 (h) (Homo sapiens, UniProt P25929); assay: Receptor binding screen, [^125I]peptide YY, SK-N-MC cells; details: 10 uM Concentration of Compound I-1-Z; read-out: Mean Value, percent inhibition of control specific binding: Y1 (h)
T2 construct: SK-N-MC cells; endogenous in cells; host or cells: SK-N-MC cells
T2 sequence (P25929 whole entry): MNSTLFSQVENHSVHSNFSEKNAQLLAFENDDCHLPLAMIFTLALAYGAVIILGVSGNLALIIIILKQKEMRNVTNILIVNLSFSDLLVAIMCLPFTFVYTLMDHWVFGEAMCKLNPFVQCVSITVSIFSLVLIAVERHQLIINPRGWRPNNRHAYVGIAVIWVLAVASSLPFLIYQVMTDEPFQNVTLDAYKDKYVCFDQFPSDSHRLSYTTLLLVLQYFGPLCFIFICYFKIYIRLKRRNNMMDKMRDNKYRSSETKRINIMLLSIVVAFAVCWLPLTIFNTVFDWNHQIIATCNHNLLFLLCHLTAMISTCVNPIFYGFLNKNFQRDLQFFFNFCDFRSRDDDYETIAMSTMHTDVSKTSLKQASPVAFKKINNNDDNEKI

[1] = tested on: LPS-induced lung inflammation; assay: LPS-induced pulmonary inflammation in rats; format: in vivo, Sprague Dawley rats; details: FIG. 14
Procedure: LPS-induced pulmonary inflammation in rats is a widely used model of airway inflammation ([…] et al. (2002) J. Pharmacol. Exp. Ther. 302:127). For the experiment described here, groups of Sprague-Dawley female rats (180-200 g) were orally dosed with either a compound of the invention (1 or 10 mg/kg), or with vehicle 1 h before the LPS challenge. Animals were placed in a plexiglass chamber and LPS at 100 μg/ml was nebulized for ten minutes. The nebulizer was turned off for ten minutes, then the chamber was evacuated for a further ten minutes. The animals remained in the chamber throughout this 30 minute cycle. Animals were then returned to their cages for the remainder of the experiment. Four hours after exposure to LPS animals were sacrificed and lungs excised. Lungs were washed with three cycles of 3 ml RPMI 1640 medium and the lavage fluid combined. Cells were pelleted by centrifugation and washed in the same medium. Total cell counts were performed using a hemacytometer. Differential cell counts were conducted on Cytospin-prepared slides stained with Diff-Quick stain. Standard morphological criteria were used to define mononuclear and neutrophilic cells. Using the above protocol, an experiment to assess the effects of compound I-1-Z was carried out. Groups of four female Sprague Dawley rats were orally administered PBS, compound I-1-Z at the indicated doses, or dexamethasone at 3 mg/kg. […]

B2 (h) = target: T3, B2 (h) (Homo sapiens, UniProt P30411); assay: Receptor binding screen, [^3H]bradykinin; details: 10 uM Concentration of Compound I-1-Z; read-out: Mean Value, percent inhibition of control specific binding: B2 (h)
T3 construct: expressed in transfected cells; host or cells: CHO cells

V1a (h) = target: T4, V1a (h) (Homo sapiens, UniProt P37288); assay: Receptor binding screen, [^3H]AVP; details: 10 uM Concentration of Compound I-1-Z; read-out: Mean Value, percent inhibition of control specific binding: V1a (h)
T4 construct: expressed in transfected cells; host or cells: CHO cells
T4 sequence (P37288 whole entry): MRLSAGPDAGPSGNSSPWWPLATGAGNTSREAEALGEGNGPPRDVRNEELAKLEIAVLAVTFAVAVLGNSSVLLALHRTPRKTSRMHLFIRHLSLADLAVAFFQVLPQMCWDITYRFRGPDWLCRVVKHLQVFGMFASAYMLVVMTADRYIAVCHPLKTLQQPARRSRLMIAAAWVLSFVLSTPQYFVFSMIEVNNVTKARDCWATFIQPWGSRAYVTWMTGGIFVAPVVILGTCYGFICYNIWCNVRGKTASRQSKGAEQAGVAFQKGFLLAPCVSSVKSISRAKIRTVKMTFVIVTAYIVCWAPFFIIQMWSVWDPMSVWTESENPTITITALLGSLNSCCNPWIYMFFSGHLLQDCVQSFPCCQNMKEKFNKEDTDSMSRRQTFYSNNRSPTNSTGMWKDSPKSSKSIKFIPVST

TNF-α (h) = assay: Receptor binding screen, [^125I]TNF-α, U-937 cells; design: species or system human; details: 10 uM Concentration of Compound I-1-Z
σ (non-selective) = assay: Receptor binding screen, [^3H]DTG; design: species or system rat; details: 10 uM Concentration of Compound I-1-Z
Procedure: as §1

5-HT transporter (h) = target: T5, 5-HT transporter (h) (Homo sapiens, UniProt P31645); assay: Receptor binding screen, [^3H]imipramine; details: 10 uM Concentration of Compound I-1-Z; read-out: Mean Value, percent inhibition of control specific binding: 5-HT transporter (h)
T5 construct: expressed in transfected cells; host or cells: CHO cells
T5 sequence (P31645 whole entry): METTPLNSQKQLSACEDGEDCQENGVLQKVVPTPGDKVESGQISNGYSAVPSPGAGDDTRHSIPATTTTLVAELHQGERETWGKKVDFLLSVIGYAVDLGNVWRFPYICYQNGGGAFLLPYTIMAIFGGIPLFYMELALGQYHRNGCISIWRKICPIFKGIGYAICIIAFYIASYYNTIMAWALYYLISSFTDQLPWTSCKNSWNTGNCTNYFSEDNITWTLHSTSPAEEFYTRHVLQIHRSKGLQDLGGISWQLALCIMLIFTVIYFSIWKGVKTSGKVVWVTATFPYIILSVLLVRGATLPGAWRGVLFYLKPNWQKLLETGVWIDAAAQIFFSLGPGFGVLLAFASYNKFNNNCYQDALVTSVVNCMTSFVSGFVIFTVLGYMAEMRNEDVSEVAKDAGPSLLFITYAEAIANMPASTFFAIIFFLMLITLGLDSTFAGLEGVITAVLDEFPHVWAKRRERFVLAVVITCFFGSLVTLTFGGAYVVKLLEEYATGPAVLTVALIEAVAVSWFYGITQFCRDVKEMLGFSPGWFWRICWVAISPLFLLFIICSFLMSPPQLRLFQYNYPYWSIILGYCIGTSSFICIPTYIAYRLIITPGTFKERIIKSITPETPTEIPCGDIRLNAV

5-HT6 (h) = target: T6, 5-HT6 (h) (Homo sapiens, UniProt P50406); assay: Receptor binding screen, [^3H]LSD; details: 10 uM Concentration of Compound I-1-Z; read-out: Mean Value, percent inhibition of control specific binding: 5-HT6 (h)
T6 construct: expressed in transfected cells; host or cells: CHO cells
T6 sequence (P50406 whole entry): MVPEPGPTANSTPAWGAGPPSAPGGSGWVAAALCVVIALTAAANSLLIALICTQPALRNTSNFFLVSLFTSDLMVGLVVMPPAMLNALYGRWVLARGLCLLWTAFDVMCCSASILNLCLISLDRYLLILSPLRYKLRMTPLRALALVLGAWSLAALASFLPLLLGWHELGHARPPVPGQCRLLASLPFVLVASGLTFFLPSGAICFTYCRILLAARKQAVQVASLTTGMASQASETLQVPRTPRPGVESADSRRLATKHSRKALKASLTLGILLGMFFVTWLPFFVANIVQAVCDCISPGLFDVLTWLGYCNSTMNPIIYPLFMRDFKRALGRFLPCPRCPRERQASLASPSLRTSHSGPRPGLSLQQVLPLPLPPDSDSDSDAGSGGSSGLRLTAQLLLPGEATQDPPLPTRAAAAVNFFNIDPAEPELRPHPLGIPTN

5-HT7 (h) = target: T7, 5-HT7 (h) (Homo sapiens, UniProt P34969); assay: Receptor binding screen, [^3H]LSD; details: 10 uM Concentration of Compound I-1-Z; read-out: Mean Value, percent inhibition of control specific binding: 5-HT7 (h)
T7 construct: expressed in transfected cells; host or cells: CHO cells
T7 sequence (P34969 whole entry): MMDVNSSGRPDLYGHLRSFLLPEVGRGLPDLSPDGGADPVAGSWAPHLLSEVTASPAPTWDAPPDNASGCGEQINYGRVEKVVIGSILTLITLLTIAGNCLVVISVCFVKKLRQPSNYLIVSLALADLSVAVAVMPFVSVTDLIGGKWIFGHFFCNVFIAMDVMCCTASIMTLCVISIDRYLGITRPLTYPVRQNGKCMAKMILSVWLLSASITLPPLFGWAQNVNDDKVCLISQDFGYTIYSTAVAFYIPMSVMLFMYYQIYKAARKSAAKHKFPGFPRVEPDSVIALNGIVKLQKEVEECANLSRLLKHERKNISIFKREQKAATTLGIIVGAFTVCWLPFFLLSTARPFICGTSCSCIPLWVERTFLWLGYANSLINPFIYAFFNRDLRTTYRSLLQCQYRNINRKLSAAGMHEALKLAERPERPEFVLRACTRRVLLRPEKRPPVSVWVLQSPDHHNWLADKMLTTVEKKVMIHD

K^+V channel = assay: Receptor binding screen, [^125I]α-dendrotoxin; design: species or system rat; details: 10 uM Concentration of Compound I-1-Z
M2 (h) = target: T8, M2 (h) (Homo sapiens, UniProt P08172); assay: Receptor binding screen, [^3H]AF-DX 384; details: 10 uM Concentration of Compound I-1-Z; read-out: Mean Value, percent inhibition of control specific binding: M2 (h)
T8 construct: expressed in transfected cells; host or cells: CHO cells
T8 sequence (P08172 whole entry): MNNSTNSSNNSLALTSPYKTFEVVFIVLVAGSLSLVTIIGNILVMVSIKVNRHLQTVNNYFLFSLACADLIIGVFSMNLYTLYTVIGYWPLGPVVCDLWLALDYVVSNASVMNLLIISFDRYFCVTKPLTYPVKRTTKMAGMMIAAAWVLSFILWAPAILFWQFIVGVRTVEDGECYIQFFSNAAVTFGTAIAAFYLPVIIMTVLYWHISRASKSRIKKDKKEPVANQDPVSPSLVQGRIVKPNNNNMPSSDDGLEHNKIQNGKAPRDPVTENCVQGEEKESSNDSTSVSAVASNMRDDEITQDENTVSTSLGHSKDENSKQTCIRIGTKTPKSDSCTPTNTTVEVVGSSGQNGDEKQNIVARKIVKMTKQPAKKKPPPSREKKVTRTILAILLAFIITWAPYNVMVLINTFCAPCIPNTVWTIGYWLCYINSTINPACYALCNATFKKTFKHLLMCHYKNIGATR

H1 (h) = target: T9, H1 (h) (Homo sapiens, UniProt P35367); assay: Receptor binding screen, [^3H]pyrilamine; details: 10 uM Concentration of Compound I-1-Z; read-out: Mean Value, percent inhibition of control specific binding: H1 (h)
T9 construct: expressed in transfected cells; host or cells: HEK-293 cells
T9 sequence (P35367 whole entry): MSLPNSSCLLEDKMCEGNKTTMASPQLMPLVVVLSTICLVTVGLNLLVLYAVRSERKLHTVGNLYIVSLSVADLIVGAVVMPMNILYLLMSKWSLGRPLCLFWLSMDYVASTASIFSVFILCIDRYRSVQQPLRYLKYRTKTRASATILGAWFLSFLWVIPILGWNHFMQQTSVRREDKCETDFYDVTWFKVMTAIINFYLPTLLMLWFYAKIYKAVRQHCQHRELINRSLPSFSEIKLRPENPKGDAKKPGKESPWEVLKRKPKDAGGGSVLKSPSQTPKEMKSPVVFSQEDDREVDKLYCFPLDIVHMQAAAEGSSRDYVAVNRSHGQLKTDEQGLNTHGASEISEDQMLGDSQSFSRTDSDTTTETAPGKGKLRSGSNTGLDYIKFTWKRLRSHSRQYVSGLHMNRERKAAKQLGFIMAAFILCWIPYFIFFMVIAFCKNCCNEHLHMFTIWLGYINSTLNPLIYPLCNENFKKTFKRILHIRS

α1 (non-selective) = assay: Receptor binding screen, [^3H]prazosin; design: species or system rat; details: 10 uM Concentration of Compound I-1-Z
Procedure: as §1

[2] = target: T10, human diamine oxidase (DAO) (Homo sapiens, UniProt P19801); assay: Inhibition of diamine oxidase, AMPLEX Red assay, putrescine substrate; format: biochemical; details: recombinant DAO expressed in CHO cells
T10 construct: made in house; host or cells: CHO cells (Flp-In, pcDNA5/FRT); serum-free conditioned medium used directly
T10 sequence (P19801 20-751): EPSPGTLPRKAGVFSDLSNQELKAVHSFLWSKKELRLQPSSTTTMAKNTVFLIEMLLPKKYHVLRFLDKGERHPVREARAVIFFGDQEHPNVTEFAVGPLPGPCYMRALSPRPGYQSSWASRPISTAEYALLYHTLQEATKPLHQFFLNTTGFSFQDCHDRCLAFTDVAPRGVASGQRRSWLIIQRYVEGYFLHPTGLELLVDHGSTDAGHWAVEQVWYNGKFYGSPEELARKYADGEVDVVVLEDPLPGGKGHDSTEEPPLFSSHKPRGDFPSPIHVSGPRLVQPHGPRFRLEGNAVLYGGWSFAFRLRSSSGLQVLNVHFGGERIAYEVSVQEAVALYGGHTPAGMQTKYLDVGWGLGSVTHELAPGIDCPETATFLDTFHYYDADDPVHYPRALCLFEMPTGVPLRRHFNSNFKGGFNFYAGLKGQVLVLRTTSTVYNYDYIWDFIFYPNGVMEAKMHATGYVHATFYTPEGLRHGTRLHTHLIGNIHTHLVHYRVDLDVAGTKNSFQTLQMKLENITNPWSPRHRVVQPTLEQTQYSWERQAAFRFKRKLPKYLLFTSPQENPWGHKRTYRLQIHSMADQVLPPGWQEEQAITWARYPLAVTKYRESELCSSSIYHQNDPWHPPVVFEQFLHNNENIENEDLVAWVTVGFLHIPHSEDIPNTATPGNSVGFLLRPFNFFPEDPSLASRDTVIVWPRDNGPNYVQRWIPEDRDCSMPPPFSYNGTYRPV
Procedure: Compounds of the invention can be tested for their inhibitory activity against diamine oxidase (DAO). Recombinant DAO was expressed in CHO cells using standard molecular biology methods as described herein. […] The serum containing media was removed and the cells were switched to CHO SFM serum free media for 48 hours. […] The media was collected and used directly as a source of diamine oxidase for enzyme analysis.

rat lung SSAO = target: T11, rat lung SSAO (Rattus norvegicus, UniProt O08590); assay: ED50 for rat lung SSAO after oral administration; format: in vivo, Sprague Dawley rats; details: lungs excised 1, 3, 6 or 24 h later, FIG. 11, read-out: ED50 for inhibition of rat lung SSAO activity
T11 construct: rat lung or human umbilical cord homogenates were prepared by chopping the freshly removed tissue; from tissue; host or cells: rat lung homogenate (1000 g supernatant)
T11 sequence (O08590 whole entry): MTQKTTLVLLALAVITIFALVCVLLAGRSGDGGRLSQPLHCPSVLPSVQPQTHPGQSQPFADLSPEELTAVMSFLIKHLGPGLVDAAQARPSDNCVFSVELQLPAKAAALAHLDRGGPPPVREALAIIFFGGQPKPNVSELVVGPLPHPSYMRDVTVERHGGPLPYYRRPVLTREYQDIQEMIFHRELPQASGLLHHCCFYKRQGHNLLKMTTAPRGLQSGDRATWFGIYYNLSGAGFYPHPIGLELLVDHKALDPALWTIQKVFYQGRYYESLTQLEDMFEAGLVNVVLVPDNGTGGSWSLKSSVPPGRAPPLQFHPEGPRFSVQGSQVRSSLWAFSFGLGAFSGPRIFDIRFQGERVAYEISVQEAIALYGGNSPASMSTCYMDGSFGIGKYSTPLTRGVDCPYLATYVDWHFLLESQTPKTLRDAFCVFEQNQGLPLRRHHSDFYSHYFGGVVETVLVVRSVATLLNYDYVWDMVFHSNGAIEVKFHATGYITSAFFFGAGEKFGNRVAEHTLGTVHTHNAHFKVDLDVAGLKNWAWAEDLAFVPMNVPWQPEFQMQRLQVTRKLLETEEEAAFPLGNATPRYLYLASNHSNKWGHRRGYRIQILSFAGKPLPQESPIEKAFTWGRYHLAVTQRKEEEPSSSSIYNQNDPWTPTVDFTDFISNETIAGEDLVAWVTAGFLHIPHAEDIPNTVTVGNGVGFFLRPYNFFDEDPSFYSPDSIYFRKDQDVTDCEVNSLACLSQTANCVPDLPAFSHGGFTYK
Procedure: Groups of five Sprague Dawley rats were orally administered the indicated doses of compound I-1-Z. At 1, 3, 6 or 24 h later, the animals were sacrificed, lungs excised and SSAO activity in lung homogenates determined. Results are presented as percent inhibition of SSAO activity relative to animals that were administered PBS.

GABA (non-selective) = assay: Receptor binding screen, [^3H]GABA; design: species or system rat; details: 10 uM Concentration of Compound I-1-Z
Procedure: as §1

For COc1ccc(C/C(=C/F)CN)cc1.Cl [Compound I-1-Z, (Z)-3-Fluoro-2-(4-methoxybenzyl)-allylamine hydrochloride], the inhibition at 10 µM (M1 (h)) was 28%, the inhibition at 10 µM (Y1 (h)) was -2% and the LPS-induced lung inflammation ([1]; 1 mg/kg orally before nebulized LPS) was “effective in reducing LPS-induced lung inflammation”. The LPS-induced lung inflammation ([1]; 10 mg/kg orally before nebulized LPS) was “effective in reducing LPS-induced lung inflammation”, the inhibition at 10 µM (B2 (h)) was 1% and the inhibition at 10 µM (V1a (h)) was 9%. The “Mean Value, percent inhibition of control specific binding: TNF-α (h)” value (TNF-α (h)) was −6%, the “Mean Value, percent inhibition of control specific binding: σ (non-selective)” value (σ (non-selective)) was 24% and the inhibition at 10 µM (5-HT transporter (h)) was 47%. The inhibition at 10 µM (5-HT6 (h)) was 1%, the inhibition at 10 µM (5-HT7 (h)) was 13% and the “Mean Value, percent inhibition of control specific binding: K^+V channel” value (K^+V channel) was −5%. The inhibition at 10 µM (M2 (h)) was 3%, the inhibition at 10 µM (H1 (h)) was 3% and the “Mean Value, percent inhibition of control specific binding: α1 (non-selective)” value (α1 (non-selective)) was 8%. The pIC50 [2] was 4.04, the ED50 (rat lung SSAO) was 0.1 to 1 mg/kg and the “Mean Value, percent inhibition of control specific binding: GABA (non-selective)” value (GABA (non-selective)) was −19%.
